Measured values: publication PMC7377239, “Cardiovascular Effects of Polychlorinated Biphenyls and Their Major Metabolites” (Environmental Health Perspectives, 2020)
Where two headings read alike, the source gives them in different places.

Assays:
[1] = tested on: iCell endothelial cells (human iPSC-derived ECs); test: Tube formation (tubulogenesis) assay in iCell endothelial cells, 18 h; format: cell-based; conditions: Homo sapiens, Endothelial cell, 18 hr; for activity at 0.1 µM: 0.10 µM
Method in brief: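 Tube formation was measured by calcein AM imaging after overnight compound exposure (37°C, 0.5% DMSO vehicle) of human iPSC-derived ECs, 7,500/well, on reduced-growth-factor Geltrex in starvation medium. Vehicle-normalized data fitted to four-parameter logistic; POD set at one vehicle SD; without response, 100 μM taken as NOAEL.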

[2] = tested on: HUVECs; test: Tube formation (tubulogenesis) assay in HUVECs, 18 h; format: cell-based, human; conditions: Homo sapiens, HUVEC, 18 h; for activity at 0.1 µM: 0.10 µM
Method in brief: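 HUVECs (passage 1–5) seeded on reduced-growth-factor basement membrane and exposed to compounds overnight at 37°C, 5% CO2, in 2× maintenance medium with 12.5 ng/mL VEGF; 0.5% DMSO vehicle. Calcein AM-stained tube networks imaged and analysed; vehicle-normalized readouts fit to four-parameter logistic, POD set at one SD of vehicle means.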

[3] = iPSC-EC tube formation, 0.00 µM control = 100.00, read-out: endo.mtl.18hr
[4] = iPSC-EC tube formation, 0.00 µM control = 100.00, read-out: endo.tlps.18hr
[5] = iPSC-EC tube formation, 0.00 µM control = 100.00, read-out: endo.tta.18hr
[6] = iPSC-EC tube formation, 0.00 µM control = 100.00, read-out: endo.ttl.18hr
[7] = HUVECs, 0.00 µM = 100.00, read-out: huvec.mtl.18hr
[8] = HUVECs, 0.00 µM = 100.00, read-out: huvec.tlps.18hr
[9] = HUVECs, 0.00 µM = 100.00, read-out: huvec.tta.18hr
[10] = HUVECs, 0.00 µM = 100.00, read-out: huvec.ttl.18hr

Work on Oc1cc(Cl)cc(-c2cccc(Cl)c2)c1 [5-OH PCB 11] yielded an activity at 0.01 µM [1, 3] of 117%, an activity at 0.01 µM [1, 4] of 105% and an activity at 0.01 µM [1, 5] of 155%. The activity at 0.01 µM [1, 6] was 155%, the activity at 0.1 µM [1, 3] was 102% and the activity at 0.1 µM [1, 4] was 110%. It also gave an activity at 0.1 µM [1, 5] of 125%, an activity at 0.1 µM [1, 6] of 125% and an activity at 1 µM [1, 3] of 109%. For the same compound, the activity at 1 µM [1, 4] was 124%, the activity at 1 µM [1, 5] was 134% and the activity at 1 µM [1, 6] was 132%. For the same compound, the activity at 10 µM [1, 3] was 53.8%, the activity at 10 µM [1, 4] was 26.9% and the activity at 10 µM [1, 5] was 38.5%. It also gave an activity at 10 µM [1, 6] of 37.3%, an activity at 100 µM [1, 3] of 46.3% and an activity at 100 µM [1, 4] of 12.3%. For the same compound, the activity at 100 µM [1, 5] was 1.58%, the activity at 100 µM [1, 6] was 2.12% and the minimal effective concentration ([1]; iPSC-EC tube formation, top concentration 100.00 µM, read-out: endo.mtl.18hr POD) was 5.28 µM. It also gave a minimal effective concentration ([1]; iPSC-EC tube formation, top concentration 100.00 µM, read-out: endo.tlps.18hr POD) of 5.71 µM, a minimal effective concentration ([1]; iPSC-EC tube formation, top concentration 100.00 µM, read-out: endo.tta.18hr POD) of 6.97 µM and a minimal effective concentration ([1]; iPSC-EC tube formation, top concentration 100.00 µM, read-out: endo.ttl.18hr POD) of 7.34 µM. For the same compound, the activity at 0.01 µM [2, 7] was 117%, the activity at 0.01 µM [2, 8] was 148% and the activity at 0.01 µM [2, 9] was 116%. The activity at 0.01 µM [2, 10] was 106%, the activity at 0.1 µM [2, 7] was 121% and the activity at 0.1 µM [2, 8] was 186%. It also gave an activity at 0.1 µM [2, 9] of 123%, an activity at 0.1 µM [2, 10] of 106% and an activity at 1 µM [2, 7] of 103%. For the same compound, the activity at 1 µM [2, 8] was 111%, the activity at 1 µM [2, 9] was 113% and the activity at 1 µM [2, 10] was 104%. The activity at 10 µM [2, 7] was 81.1%, the activity at 10 µM [2, 8] was 102% and the activity at 10 µM [2, 9] was 76.5%. For the same compound, the activity at 10 µM [2, 10] was 67.6%, the activity at 100 µM [2, 7] was 63% and the activity at 100 µM [2, 8] was 38.8%. For the same compound, the activity at 100 µM [2, 9] was 111%, the activity at 100 µM [2, 10] was 94.6% and the minimal effective concentration ([2]; HUVECs, top concentration 100.00 µM, read-out: huvec.mtl.18hr POD) was 6.98 µM. The minimal effective concentration ([2]; HUVECs, top concentration 100.00 µM, read-out: huvec.tlps.18hr POD) was 100 µM, the minimal effective concentration ([2]; HUVECs, top concentration 100.00 µM, read-out: huvec.tta.18hr POD) was 100 µM and the minimal effective concentration ([2]; HUVECs, top concentration 100.00 µM, read-out: huvec.ttl.18hr POD) was 32.7 µM.
Compound Oc1cc(Cl)cc(-c2cccc(Cl)c2)c1 [5-OH-PCB 11] has a minimal effective concentration ([1]; endothelial cells (endo), tube formation mtl, read-out: POD endo.mtl.18hr) of 5.28 µM, a minimal effective concentration ([1]; endothelial cells (endo), tube formation tlps, read-out: POD endo.tlps.18hr) of 5.71 µM and a minimal effective concentration ([1]; endothelial cells (endo), tube formation tta, read-out: POD endo.tta.18hr) of 6.97 µM. The minimal effective concentration ([1]; endothelial cells (endo), tube formation ttl, read-out: POD endo.ttl.18hr) was 7.34 µM, the minimal effective concentration ([2]; tube formation mtl, read-out: POD huvec.mtl.18hr) was 6.98 µM and the minimal effective concentration ([2]; tube formation tlps, read-out: POD huvec.tlps.18hr) was 100 µM. For the same compound, the minimal effective concentration ([2]; tube formation tta, read-out: POD huvec.tta.18hr) was 100 µM and the minimal effective concentration ([2]; tube formation ttl, read-out: POD huvec.ttl.18hr) was 32.7 µM.
